# Results taken from patent US8476309B2, “Benzofuran cannabinoid compounds and related methods of use” (The University of Tennessee Research Foundation, priority 2009, dated 2013).
# Tested on: glioblastoma brain cancer cell line LN-229
# Assay: Cytotoxicity assay (CCK8 viability)
# Assay type: cell-based
# Conditions: Homo sapiens, LN-229, 24 h, read-out: EC50 LN-229, 24 hrs, 1% FBS
# Description: Cytoxocity assay: Cells are seeded on a 96 well polystyrene plate in full serum media at a density of 75,000 cells per milliliter, 100 μL per well. Plates are incubated at 37° C. and 5% CO2 for 24 hours to allow cell attachment. Drug solutions are prepared in DMSO at 100× concentration and mixed 1:100 in 1% FBS media to yield the desired concentration. Drug-media mixtures are vortexed immediately prior to administration to cells. […] 10 μL of Cell Counting Kit 8 (CCK8, Dojindo# CK04-11) is added to each well to colormetrically assess viability. After 2-4 hours of incubation with the CCK8 dye, absorbance is read at 450 nm by a BioTek Synergy 2 plate reader.
# The cytotoxicity of selected compounds against the glioblastoma brain cancer cell line LN-229 is depicted in Table 2.
row,SMILES,EC50 [µM]
1,"CCCCCc1cc(O)c2c(-c3cccc(C)c3)coc2c1 [Compound 51, 6-Pentyl-3-m-tolylbenzofuran-4-ol]",16.4
2,"CCCCCc1cc(O)c2c(-c3cc(OC)cc(OC)c3)coc2c1 [Compound 55, 3-(3,5-Dimethoxyphenyl)-6-pentylbenzofuran-4-ol]",10.3
3,"CCCCCc1cc(O)c2c(-c3cc(Cl)cc(Cl)c3)coc2c1 [Compound 58, 3-(3,5-Dichlorophenyl)-6-pentylbenzofuran-4-ol]",13.6

# Same assay, conditions: Homo sapiens; LN-229 cells, 24 hrs, 1% FBS media, CCK8 readout; read-out: EC50 LN-229, 24 hrs, 1% FBS
row,SMILES,EC50 [µM]
1,"CCCCCc1cc(O)c2c(-c3cccs3)coc2c1 [Compound 49, 6-Pentyl-3-thiophen-2-yl-benzofuran-4-ol]",68.5
2,"CCCCCc1cc(O)c2cc(-c3cccs3)oc2c1 [Compound 50, 6-Pentyl-2-thiophen-2-yl-benzofuran-4-ol]",10.1
3,"CCCCCc1cc(O)c2c(-c3ccccc3)coc2c1 [Compound 52, 6-Pentyl-3-phenylbenzofuran-4-ol]",10.7
4,"CCCCCc1cc(O)c2cc(-c3cc(OC)cc(OC)c3)oc2c1 [Compound 56, 2-(3,5-Dimethoxyphenyl)-6-pentylbenzofuran-4-ol]",10.3
5,"CCCCCc1cc(O)c2cc(-c3cc(Cl)cc(Cl)c3)oc2c1 [Compound 59, 2-(3,5-Dichlorophenyl)-6-pentylbenzofuran-4-ol]",6.12
6,"CCCCCCC(C)(C)c1cc(O)c2c(-c3cc(Cl)cc(Cl)c3)coc2c1 [Compound 62, 3-(3,5-Dichlorophenyl)-6-(2-methyloctan-2-yl)benzofuran-4-ol]",11.4
7,"CCCCCCC(C)(C)c1cc(O)c2c(-c3ccccc3)coc2c1 [Compound 63, 6-(2-Methyloctan-2-yl)-3-phenylbenzofuran-4-ol]",10.3
8,"CC(C)(c1cccc(F)c1)c1cc(O)c2c(-c3ccccc3)coc2c1 [Compound 75, 6-(2-(3-Fluorophenyl)propan-2-yl)-3-phenylbenzofuran-4-ol]",6.99
